One series deals with caspase 3. The series can be described thus: Caspase induction study (Nucview488 fluorogenic substrate) in the presence of TNFα. The format is cell-based. Particulars: human monocytes, 10 μM test compound, 10 ng/mL TNFα, Nucview488 stain. The method, then: The ability to activate caspase 3 was studied using a fluorogenic enzyme substrate assay.
Briefly, human primary monocytes were isolated from whole blood using Ficoll gradients. The resulting cells were plated into microwell plates for 24 hours after which non-adherent cells were removed by washing. Cells were differentiated in the presence of 100 ng/mL MCSF. Cells were pre-treated with 10 μM test compound for 1 hour prior to stimulation with 10 ng/mL TNFα. Caspase 3 activation as an indicator of apoptosis was detected using the Nucview488 stain, which was added one hour prior to visualisation. The Nucview488 stain indicates the activation of caspase 3 (CPP32, apopain, YAMA), a cysteine peptidase which plays a key role in the induction of apoptosis in individual whole mammalian cells. Essentially, Nucview488 consists of a fluorogenic DNA dye and a DEVD substrate moiety specific for caspase 3. In itself, Nucview488 is nonfluorescent. However, upon entering the cell cytoplasm, Nucview488 is cleaved by caspase 3 to form a high-affinity DNA dye. The released DNA dye migrates to the cell nucleus to stain the nucleus bright green. This fluorescent staining produced in response to caspase 3 activity is monitored using fluorescent light microscopy.

For the next series, the system named is J774 macrophages. Put plainly: Alamar Blue macrophage J774 viability assay. The format is cell-based. Particulars: Mus musculus; J774 cells, 72 hours with compound, Alamar Blue readout; read-out: IC50. The method, then: (§1) Initial screening of candidate compounds was performed using in vitro assays to determine potency, metabolic stability and solubility in biologically relevant fluids. Potency was assessed using a viability assay based on the survival of the J774 macrophage cell line. Macrophages are closely related to osteoclasts and have been used previously as a model system for osteoclast survival (see, e.g., Luckman et al., 1998). Like osteoclasts, J774 macrophages are dependent on continued NFκB activation for survival, thereby providing a valuable screen for compounds with anti-inflammatory activity. Metabolic stability was measured by determining the rate of disappearance of compound in the presence of human liver microsomal preparations, as quantified by LC-MS/MS. Solubility was measured by equilibration of the compound in fasted state simulated intestinal fluid (FaSSIF) and quantified by HPLC.
In vitro potency as anti-inflammatory agents was determined for a number of APSAC compounds by incubation with J774 macrophages and subsequent determination of cell viability.
J774 cells were plated at 10^4 cells per well in 100 μL αMEM (α Modified Eagle Medium) in 96-well plates and grown overnight. The next day, test compounds were added to the cultures, and cultures were continued for another 72 hours. At the end of the culture period, cell survival was determined using an Alamar Blue assay as previously described (see, e.g., Nociari et al., 1998).
Alamar Blue is an oxidation-reduction sensitive indicator. The dye itself is in the oxidised state, which is blue and non-fluorescent. The dye can accept electrons from reducing species, such as NADPH and FADH, to form a reduced dye species, which is red and fluorescent. Thus the transformation from oxidised form to reduced form can be measured by fluorimetric or colourimetric means. For fluorescence measurements, 530-560 nm excitation and 590 nm emission wavelengths are typically used. For colourimetric measurements, absorbance at 570 nm (reduced form) and 600 nm (oxidised form) is typically measured. A simple calculation is performed to determine the relative quantities of the two species.
A high ratio of the reducing species, NADPH and FADH, to the corresponding oxidised species, NADP and FAD, is an indicator that cells are proliferating and viable. A low ratio indicates cells that are quiescent or non-viable.
Briefly, Alamar Blue (Biosource International) was added undiluted to the each well (1:10 v/v, 10 μL). The plate was incubated at 37° C. for 3-4 hours and the fluorescence was measured at 590 nm, with a 25 nm bandwidth. A high reading indicated cells with normal viability, and a low reading indicated cells that have been damaged and are no longer proliferating normally. The controls gave a high fluorescence reading, indicating a high number of live, healthy cells. A potent test compound gave a low fluorescence reading. The average results for each test compound (n=5) were expressed as a percent (%) of the average control value.
Addition of Compounds. All of the compounds studied were made up as 100 mM solutions in DMSO. These stock solutions were then diluted 1000-10000× in culture medium (αMEM). From these 100 μM or 10 μM solutions, convenient quantities (3-33 μL) were added directly to the wells so as to give the desired final compound concentration.
(In general: The colour change of resazurin is a common sign of viable cells or microbes.)

The nature of series [1]: Thermodynamic aqueous solubility in fasted state simulated intestinal fluid (FaSSIF). It is filed as physicochemical. To be noted: pH 6.5, thermodynamic from solid, equilibrated at 25° C. for 24 hours, HPLC. The method, then: as §1, with “Macrophages are closely related to osteoclasts and have been used previously as a model system for osteoclast survival (see, e.g., Luckman et al., 1998).” left out
Thermodynamic aqueous solubility was measured by equilibration of a number of APSAC compounds, in the solid state, with fasted state simulated intestinal fluid (FaSSIF) and quantified by HPLC. Measurement of solubility in FaSSIF provides a valuable model for the prediction of drug dissolution following oral administration.
The pH was adjusted to 6.5 using 1 M NaOH solution.
0.6 mL of a solution containing 100 mg/mL lecithin in methylene chloride was added. The methylene chloride was eliminated under vacuum at about 40° C. The vacuum was drawn for 15 minutes at 250 mbar, followed by 15 minutes at 100 mbar. […] After cooling to room temperature, the solution was then adjusted to 100 mL with blank FaSSIF.
The suspension was equilibrated at 25° C. for 24 hours, and then the pH was measured. The suspension was then filtered through a glass fibre C filter into a 96-well plate. The filtrate was then diluted by a factor of 100. Quantification was made by HPLC with reference to a standard solution of compound at approximately 0.1 mg/mL in DMSO. Different volumes of the standard, diluted and undiluted sample solutions were injected. […] Analysis was performed on an Agilent HP1100 series system equipped with a diode array detector and using ChemStation software vB.02.01-SR1.

A short description of series [2]: Human liver microsomal stability assay. It is filed as in vitro ADME. To be noted: both sexes, pH 7.4; pooled human liver microsomes 0.5 mg/mL, 3 μM compound, NADPH, 45 minute incubation. The protocol:
as §1, with “Macrophages are closely related to osteoclasts and have been used previously as a model system for osteoclast survival (see, e.g., Luckman et al., 1998).” left out
Metabolic stability of APSAC derivatives was measured by determination of the rate of compound disappearance when incubated in the presence of human liver microsomes. Liver microsomes are prepared from the endoplasmic reticulum of hepatocytes and are the primary source of the most important enzymes (cytochrome P450) involved in drug metabolism. Study of drug stability in the presence of liver microsomes is accepted as a valuable model permitting rapid prediction of in vivo drug stability.
Human liver microsomes were obtained from a commercial source. Test compounds (3 μM) were incubated with pooled liver microsomes (male and female). Samples were incubated for a 45 minute period and removed at 5 time points and test compounds were analysed by LC-MS/MS.
The final incubation volume was 25 μL. A control incubation was included for each compound tested, where 0.1 M phosphate buffer pH 7.4 was added instead of NADPH. The control compounds testosterone and 7-hydroxycoumarin were included in each experiment and all incubations were performed singularly for each compound.
Each compound was incubated for 0, 5, 15, 30, and 45 minutes. The control (minus NADPH) was incubated for 45 minutes only. […] The incubation plates were centrifuged at 2500 rpm for 20 minutes at 4° C. to precipitate the protein.
Following protein precipitation, the sample supernatants were combined in cassettes of up to 4 compounds and analysed using standard LC-MS/MS conditions.
From a plot of the natural logarithm of the peak area ratio (i.e., the ratio of compound peak area:internal standard peak area) against time, the gradient of the line was determined. Subsequently, half-life and intrinsic clearance were calculated using the equations below: Eliminated rate constant (k)=(−gradient). […] Pharmacokinetics Studies

Each structure is given as a SMILES string. ≈ marks a conversion by molar mass, not a printed value.

Broadly, the IC50 is the point on the concentration scale where inhibition reaches its midpoint. By solubility is commonly meant how much of the substance goes into solution per volume. A higher solubility goes with a readily soluble substance. The term half-life denotes the time needed for the level to fall by half in the phase considered. A high value points to slow decline. In the case of `O=S(=O)(N[C@H]1CC[C@H](O)CC1)c1ccc(-c2ccc(F)cc2F)cc1` [ABD599, 2′,4′-Difluoro-N-(trans-4-hydroxycyclohexyl)biphenyl-4-sulfonamide], the “caspase 3 activation (fluorescence detected by light microscopy)” value with caspase 3 was “significant activation of caspase 3”. In the series with J774 macrophages, the IC50 was found to be 0.07 µM. In series [1], the concentration in solution (solubility at 24 h) came to 30 µg/mL (≈ 81.7 µM). Also, the half-life at 3 µM in series [2] was 4.78 h.

Consider `N[C@H]1CC[C@@H](NS(=O)(=O)c2ccc(-c3ccc(F)cc3F)cc2)CC1` [ABD812, N-(cis-4-Aminocyclohexyl)-2′,4′-difluorobiphenyl-4-sulfonamide], for which the IC50 with J774 macrophages came to 7.6 µM. For the same compound, the concentration in solution in series [1] (solubility at 24 h) was 980 µg/mL (≈ 2670 µM). The compound further yielded a half-life at 3 µM in series [2] of 9.75 h.

For `O=S(=O)(N[C@H]1CC[C@H](CO)C1)c1ccc(-c2ccc(F)cc2F)cc1` [ABD813, 2′,4′-Difluoro-N-((1S,3S)-3-(hydroxymethyl)cyclopentyl)biphenyl-4-sulfonamide], in the series on J774 macrophages, the IC50 is 0.57 µM. In series [1], the solubility at 24 h is 330 µg/mL (≈ 898 µM). This compound also came in with a half-life at 3 µM in series [2] of 0.757 h.

With `CC(C)(O)[C@H]1CC[C@H](NS(=O)(=O)c2ccc(-c3ccc(F)cc3F)cc2)C1` [ABD815, 2′,4′-Difluoro-N-((1S,3S)-3-(2-hydroxypropan-2yl)cyclopentyl) biphenyl-4-sulfonamide], the concentration for half-maximal inhibition (IC50) in the series on J774 macrophages is below 0.3 µM. In addition, the concentration in solution in series [1] (solubility at 24 h) came to 250 µg/mL (≈ 632 µM). The compound further displayed a half-life at 3 µM in series [2] of 0.22 h.
